Here are results for 13 molecules from patent publication EP4782453A1 (Beyang Therapeutics Co., Ltd., priority 2023, dated 2025).

pEC50, pIC50: −log10 of the molar value. Read-outs that look alike come from different tables or passages of the source.

Assay [1] concerns MEIS1 gene expression. Put plainly: Inhibition of MEIS1 gene expression in human tumor cells (qRT-PCR), MOLM-13. The class given is cell-based. The following applies: MOLM-13 (carrying MLL-AF9), 48 hours of incubation, relative MEIS1 gene expression vs GAPDH. The source says: (§1) Experimental Example 3: Evaluation of Inhibitory Activity of Compounds Against MEISI Gene Expression in Human Tumor Cells
(§2) The effect of test samples on MEIS1 gene expression in vitro cultured human leukemia cells MV-4-11 (carrying MLL-AF4), MOLM-13 (carrying MLL-AF9), and OCI-AML3 (carrying NPM1c) was studied.
(§3) • Human acute lymphoblastic leukemia cells MV-4-11, purchased from American Type Culture Collection, Catalog Number: CRL-9591; • Human acute myeloid leukemia cells MOLM-13, purchased from COBIOER BIOSCIENCES CO., LTD, Catalog Number: CBP60678; • Human acute myeloid leukemia cells OCI-AML3, purchased from COBIOER BIOSCIENCES CO., LTD, Catalog Number: CBP60817; • MEIS1 Primer/Probe, purchased from IDT, Catalog Number: 40831613; and • GAPDH Primer/Probe, purchased from IDT, Catalog Number: 22214836.
(§4) MV-4-11 cells were cultured in an IMDM medium containing 10% fetal bovine serum, or MOLM-13 and OCI-AML3 cells were cultured in an RPMI-1640 medium containing 20% fetal bovine serum, each supplemented with 100 U·mL^-1 penicillin and 100 µg·mL^-1 streptomycin. These cells were cultured at 37°C with 5% CO2. The suspensions of individual cell lines were prepared in their respective media and seeded into 48-well plates at a density of 100,000 cells/well. On the day of the experiment, a compound stock solution was diluted in a 6-fold gradient using DMSO. Each gradient-diluted stock solution was then further diluted 250-fold with a complete medium to prepare a series of working solutions at different concentrations. Next, 250 µL of working solution (containing the complete medium with a 2-fold serial concentration of the test compound or a positive control compound, or containing a control complete medium) was added to each well. After 48 hours of incubation, cells from the 48-well plate were collected into 1 mL centrifuge tubes, centrifuged at 1000 rpm for 5 minutes, and the complete medium was removed. Cells were washed twice with 1 mL PBS and centrifuged to remove PBS. Total RNA was extracted using the RNeasy Mini Kit (250) (QIAGEN, 74106). The threshold cycle (Ct) value for gene expression was determined using the HiScript II U+ One Step qRT-PCR Probe Kit (Vazyme) (Vazyme, Q223-01), with 3 replicates per sample. The prepared reaction mixture was placed in an ABI 7500 real-time PCR instrument, and the reaction proceeded following the procedures below. [formula]
(§5) Next, for the relative MEIS1 gene expression, the concentration (EC50) that inhibits 50% of relative MEIS1 gene expression was calculated using GraphPad Prism 8 software.

Assay [2] has as its target T1, Menin-MLL (Homo sapiens, UniProt O00255).
T1 construct: His-Menin (M1-L615 end); purchased BIORTUS BP9210
T1 sequence (O00255 1-615 isoform O00255-1): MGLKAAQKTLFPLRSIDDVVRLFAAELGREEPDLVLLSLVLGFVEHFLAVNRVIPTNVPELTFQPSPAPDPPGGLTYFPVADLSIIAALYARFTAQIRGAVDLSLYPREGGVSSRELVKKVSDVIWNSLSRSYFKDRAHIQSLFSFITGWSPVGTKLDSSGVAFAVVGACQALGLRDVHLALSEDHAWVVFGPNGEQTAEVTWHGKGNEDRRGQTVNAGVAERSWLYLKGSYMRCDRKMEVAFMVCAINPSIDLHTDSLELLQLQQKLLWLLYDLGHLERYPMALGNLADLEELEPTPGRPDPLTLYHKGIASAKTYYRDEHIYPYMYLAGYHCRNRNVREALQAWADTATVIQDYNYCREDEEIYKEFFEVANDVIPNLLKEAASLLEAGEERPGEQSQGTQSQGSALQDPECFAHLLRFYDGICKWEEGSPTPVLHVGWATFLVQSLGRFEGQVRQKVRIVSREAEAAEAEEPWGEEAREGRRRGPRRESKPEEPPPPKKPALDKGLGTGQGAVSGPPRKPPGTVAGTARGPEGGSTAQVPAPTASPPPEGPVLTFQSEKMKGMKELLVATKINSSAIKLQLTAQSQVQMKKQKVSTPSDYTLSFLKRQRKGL
Kind of assay: Inhibitory activity against Menin-MLL binding (fluorescence polarization). The following applies: 150 nM His-Menin, 15 nM FITC-MLL, 25°C for 60 min. Summed up: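 Fluorescence polarization competition: compound and 150 nM His-tagged menin (residues M1-L615) sit 15 min at 25 °C in pH 7.5 HEPES buffer with NaCl, DTT and BSA; 15 nM FITC-labelled MLL peptide then binds for 60 min. IC50 fitted sigmoidally from mP values, duplicate wells.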
(In general: Polarisation of emitted light reports the rotation of a fluorescent probe.)

The test system of assay [3] is MEIS1 gene expression. Kind of assay: Inhibition of MEIS1 gene expression in human tumor cells (qRT-PCR), MV-4-11. The class given is cell-based. The settings on record: MV4-11, MV-4-11 (carrying MLL-AF4), 48 hours of incubation, relative MEIS1 gene expression vs GAPDH, read-out: MV-4-11 MEISI EC50.
From the text: as §1, §2, §3, §4, §5

Assay [4] relates to MOLM-13 (carrying MLL-AF9). Put plainly: Inhibition of proliferation of human tumor cells (Alamar Blue, 7 days), MOLM-13. The settings on record: Homo sapiens, MOLM-13 cells (carrying MLL-AF9), method calls the value GI50. The class given is cell-based. Summed up:
(§6)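 Alamar Blue fluorescence at Day 7, normalised between 0.1% DMSO wells on Day 7 (high) and Day 0 (low), gives GI50. Cells grew with compound at 37°C, 5% CO2; seeding 4,000 cells/well for MV-4-11 and MOLM-13, 3,000 for KG-1a.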

Assay [5] has as its system MV-4-11 (carrying MLL-AF4). Put plainly: Inhibition of proliferation of human tumor cells (Alamar Blue, 7 days), MV-4-11. Format: cell-based. The following applies: Homo sapiens, MV4-11, 168 h, MV-4-11 cells (carrying MLL-AF4), method calls the value GI50. Summed up:
as §6
(In general: Alamar Blue is a resazurin reagent that responds to reducing activity.)

Setting [6] is: fluorescence polarization, read-out: Menin-MLL IC50.
The mark [7] stands for this setting: Menin-MLL IC50, fluorescence polarization.

For orientation: pEC50 means the negative decadic logarithm of the EC50, by convention in mol/L. The term pIC50 denotes the negative decadic logarithm of the IC50, by convention in mol/L. Take `CC(=O)N1CCN(CCC[C@H](C(C)C)N2CC(c3cc(-c4ccc(F)cc4C(=O)N4CCOC[C@H]4C)c4c(F)nc(C)n4c3)C2)C(C)(C)C1` [Example 336]: the results for the pEC50 in assay [1] and in assay [3] were 8.03 and 7.72, respectively. For the same molecule, the pIC50 in assay [2] (setting [6]) is 8.05.

For the molecule `Cc1nc(F)c2c(-c3ccc(F)cc3C(=O)N3CCC[C@H]3C)cc(C3CN(C(C)C4CCOCC4)C3)cn12` (stereo partly shown) [Example 188], the pIC50 in assay [4] (168 h) is 7.57; in assay [2] (setting [6]), 7.92; in assay [5] it was 8.04. Besides, the pEC50 in assay [3] was 7.38.

On to `Cc1ncc2c(-c3ccc(F)cc3C(=O)N3CCOC[C@H]3C)cc(C3CN([C@H](CCCN4CCN(C5CC5)CC4)C(C)C)C3)cn12` [Example 325], for which the pEC50 in assay [1] was 8.38; in assay [3] it was 8.12. This molecule gave a pIC50 in assay [2] (setting [7]) of 8.49.

`CCN(C(=O)c1cc(F)ccc1-c1cc(C2CN([C@H](CCCN3CCC[C@@H](O)C3)C(C)C)C2)cn2c(C)ncc12)C(C)C` [Example 326]: the pEC50 in assay [1] is 8.26; in assay [3], 8.34. The pIC50 in assay [2] (setting [6]) is 8.70.

On to `Cc1nc(F)c2c(-c3ccc(F)cc3C(=O)N3CCOC[C@H]3C)cc(C3CN([C@H](CCCN4CCN(C(=O)C(C)C)CC4)C(C)C)C3)cn12` [Example 338], for which the pEC50 in assay [1] is 8.74; in assay [3], 7.57. For the same molecule, in assay [2] (setting [6]), the pIC50 is 8.05.

Consider `CC(=O)N1CCN(CCC[C@H](C(C)C)N2CC(c3cc(-c4ccc(F)cc4C(=O)N4CCOC[C@H]4C)c4c(F)nc(C)n4c3)C2)C[C@@H]1C` [Example 331], for which the figures for the pEC50 in assay [1] and in assay [3] were 7.69 and 7.20, respectively. In addition, the pIC50 in assay [2] (setting [6]) was 7.85.

For `CC(=O)N1CCN(CCC[C@H](C(C)C)N2CC(c3cc(-c4ccc(F)cc4C(=O)N4CCOC[C@H]4C)c4c(F)nc(C)n4c3)C2)[C@@H](C)C1` [Example 329], the values for the pEC50 in assay [1] and in assay [3] were 7.75 and 7.20, respectively. Further, the pIC50 in assay [2] (setting [6]) was 7.96.

Consider `CC(=O)N1CC2CC(C1)N2CCC[C@H](C(C)C)N1CC(c2cc(-c3ccc(F)cc3C(=O)N3CCOC[C@H]3C)c3c(F)nc(C)n3c2)C1` [Example 346], for which the pIC50 in assay [4] (168 h) was 8.08; in assay [2] (setting [6]) it was 8.42. Also, the pEC50 is 8.30 in assay [1] and 8.00 in assay [3].

In the case of `Cc1cncc2c(-c3ccc(F)cc3C(=O)N3CCOC[C@H]3C)cc(CC3CN(CC4CCOCC4)C3)n12` [Example 260], the pIC50 is 8.00 in assay [4] (MOLM-13, 168 h); 8.52 in assay [2] (setting [6]); 8.15 in assay [5]. For the same molecule, the pEC50 in assay [3] was 8.12.

As to `Cc1nc(F)c2c(-c3ccc(F)cc3C(=O)N3CCOC[C@H]3C)cc(C3CN([C@H](CCCN4CCN(C(=O)C5CC5)CC4)C(C)C)C3)cn12` [Example 341], the pEC50 is 8.22 in assay [1] and 7.59 in assay [3]. Moreover, the pIC50 in assay [2] (setting [6]) is 8.00.

`CC(=O)N1CCC(CN2CC(c3cc(-c4ccc(F)cc4C(=O)N4CCC[C@H]4C)c4c(F)nc(C)n4c3)C2)CC1` [Example 189]: the pIC50 in assay [4] (168 h) is 7.36; in assay [2] (setting [6]) it was 7.48; in assay [5], 7.54. Also, the pEC50 in assay [3] was 7.05.

For the molecule `CCN(C(=O)c1cc(F)ccc1-c1cc(C2CCN(C[C@H]3CC[C@H](NS(=O)(=O)CC)CC3)C2)cn2c(C)ncc12)C(C)C` (mixture of isomers) [Example 30, N-ethyl-5-fluoro-2-[3-methyl-6-(1-{[(1r,4r)-4-ethanesulfonamidocyclohexyl]methyl}pyrrolidin-3-yl)imidazo[1,5-a]pyridin-8-yl]-N-(isopropyl)benzamide], the pIC50 in assay [2] (setting [7]) is 8.22. The pEC50 in assay [3] is 7.70.

`Cc1nc(F)c2c(-c3ccc(F)cc3C(=O)N3CCOC[C@H]3C)cc(C3CN([C@@H](CO[C@H]4CCCN(C)C4)C(C)C)C3)cn12` [Example 321-1, (3R)-4-[5-fluoro-2-(1-fluoro-3-methyl-6-{1-[(2R)-3-methyl-1-{[(3S)-1-methylpiperidin-3-yl]oxy}butan-2-yl]azacyclobutan-3-yl}imidazo[1,5-a]pyridin-8yl)benzoyl]-3-methylmorpholine]: the results for the pIC50 in assay [4] (168 h), in assay [2] (setting [6]) and in assay [5] were 7.34, 7.97 and 8.19, respectively. For the same molecule, the pEC50 in assay [3] is 7.28.
